Source: patent publication US10435388B2, “Selective inhibitors of clinically important mutants of the EGFR tyrosine kinase” (CS PHARMATECH LIMITED, priority 2016, dated 2019)
Where a name gives a salt, the structure may show the parent alone.

How the values were obtained:
EGFR_d746-750 = EGFR_d746-750 (Homo sapiens, UniProt P00533, DEL746-750); test: Enzyme assay, IC50 for single mutant EGFR_d746-750 (Caliper); assay type: biochemical; details: enzyme phosphorylation assay
Experimental: (§1) Using the same technique as described in the previous paragraph, various mutated forms of the epidermal growth factor receptor may be isolated from appropriate cell lines which contain them. For example, the EGFR de1746-750 mutant protein may be extracted from PC-9 cells, and the L858R/T790M double mutant EGFR protein may be isolated from H1975 cells.
Determination of IC50 Values for Single Mutant EGFR_d746-750
Dilute all compounds to 500 μM stock solutions in 100% DMSO and make a serial of 4-fold dilution for 10 doses. “Max” and “Min” control contain 100% DMSO. “Max” stands for […], “Min” stands for low control without compounds. Transfer 10 μl of compounds to 90 μl of 1× kinase base buffer to make intermediate dilution. […] Incubate at RT for 1 hr and 25 μl stop buffer to end up reaction. Collect conversion data from Caliper and conversion data from Caliper program. Fit the data in XLfit to obtain IC50 values.

EGFR_T790M/L858R = EGFR_T790M/L858R (Homo sapiens, UniProt P00533, L858R/T790M); test: Enzyme assay, IC50 for double-mutant EGFR (EGFR_T790M/L858R) (Caliper); assay type: biochemical; details: enzyme phosphorylation assay; read-out: EGFR_L858R/T790 IC50
Sequence of EGFR_T790M/L858R (P00533 25-1210 T790M/L858R): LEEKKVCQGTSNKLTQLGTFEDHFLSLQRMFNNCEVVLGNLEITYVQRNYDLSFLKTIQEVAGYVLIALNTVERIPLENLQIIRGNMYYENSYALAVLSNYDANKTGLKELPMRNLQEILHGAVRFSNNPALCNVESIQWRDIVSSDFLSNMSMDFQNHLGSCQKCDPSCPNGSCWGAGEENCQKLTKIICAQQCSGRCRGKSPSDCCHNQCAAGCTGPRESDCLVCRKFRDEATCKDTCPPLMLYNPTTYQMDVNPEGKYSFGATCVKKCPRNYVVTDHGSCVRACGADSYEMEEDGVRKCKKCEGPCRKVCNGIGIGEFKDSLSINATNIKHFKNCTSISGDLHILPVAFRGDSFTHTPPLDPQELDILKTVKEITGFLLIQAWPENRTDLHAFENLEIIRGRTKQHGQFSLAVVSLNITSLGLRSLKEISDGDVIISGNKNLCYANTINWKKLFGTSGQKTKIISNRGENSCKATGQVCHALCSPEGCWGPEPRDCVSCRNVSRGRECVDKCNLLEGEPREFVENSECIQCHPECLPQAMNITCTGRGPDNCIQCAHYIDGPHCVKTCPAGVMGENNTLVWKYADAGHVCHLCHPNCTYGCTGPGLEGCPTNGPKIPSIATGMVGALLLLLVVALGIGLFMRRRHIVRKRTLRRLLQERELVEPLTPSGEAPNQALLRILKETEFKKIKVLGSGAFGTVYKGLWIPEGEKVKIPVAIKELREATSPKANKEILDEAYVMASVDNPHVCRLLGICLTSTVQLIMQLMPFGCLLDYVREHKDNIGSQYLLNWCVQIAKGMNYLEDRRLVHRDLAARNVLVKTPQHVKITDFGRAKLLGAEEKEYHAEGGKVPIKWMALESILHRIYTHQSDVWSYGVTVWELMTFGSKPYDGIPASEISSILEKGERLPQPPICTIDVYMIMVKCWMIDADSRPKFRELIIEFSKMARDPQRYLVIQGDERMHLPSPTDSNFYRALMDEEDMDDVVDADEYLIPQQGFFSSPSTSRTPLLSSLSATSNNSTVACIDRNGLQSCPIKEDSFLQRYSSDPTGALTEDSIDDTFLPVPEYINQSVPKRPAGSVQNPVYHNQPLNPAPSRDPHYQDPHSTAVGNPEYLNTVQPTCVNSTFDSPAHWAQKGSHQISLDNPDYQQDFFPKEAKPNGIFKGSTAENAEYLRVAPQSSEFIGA
Experimental: as §1
Determination of IC50 Values for Double-Mutant EGFR (EGFR_T790M/L858R)
Dilute all compounds to 500 μM stock solutions in 100% DMSO and make a serial of 4-fold dilution for 10 does. “Max” and “Min” control contain 100% DMSO. “Max” stands for […], “Min” stands for low control without compounds. Transfer 10 μl of compounds to 90 μl of 1× kinase base buffer to make intermediate dilution. […] Incubate at RT for 1 hr and 25 μl stop buffer to end up reaction. Collect conversion data from Caliper and conversion data from Caliper program. Fit the data in XLfit to obtain IC50 values.

Wt EGFR = biological target: T1, Wt EGFR (Homo sapiens, UniProt P00533); test: Enzyme assay, IC50 for wt EGFR (Caliper); assay type: biochemical; details: enzyme phosphorylation assay; read-out: EGFR_WT IC50
T1 construct: isolated from A431 human epidermoid carcinoma cells which overexpress EGF receptor; endogenous in cells; host or cells: A431 human epidermoid carcinoma cells (receptor purified on wheat germ agglutinin sepharose)
T1 sequence (P00533 25-1210): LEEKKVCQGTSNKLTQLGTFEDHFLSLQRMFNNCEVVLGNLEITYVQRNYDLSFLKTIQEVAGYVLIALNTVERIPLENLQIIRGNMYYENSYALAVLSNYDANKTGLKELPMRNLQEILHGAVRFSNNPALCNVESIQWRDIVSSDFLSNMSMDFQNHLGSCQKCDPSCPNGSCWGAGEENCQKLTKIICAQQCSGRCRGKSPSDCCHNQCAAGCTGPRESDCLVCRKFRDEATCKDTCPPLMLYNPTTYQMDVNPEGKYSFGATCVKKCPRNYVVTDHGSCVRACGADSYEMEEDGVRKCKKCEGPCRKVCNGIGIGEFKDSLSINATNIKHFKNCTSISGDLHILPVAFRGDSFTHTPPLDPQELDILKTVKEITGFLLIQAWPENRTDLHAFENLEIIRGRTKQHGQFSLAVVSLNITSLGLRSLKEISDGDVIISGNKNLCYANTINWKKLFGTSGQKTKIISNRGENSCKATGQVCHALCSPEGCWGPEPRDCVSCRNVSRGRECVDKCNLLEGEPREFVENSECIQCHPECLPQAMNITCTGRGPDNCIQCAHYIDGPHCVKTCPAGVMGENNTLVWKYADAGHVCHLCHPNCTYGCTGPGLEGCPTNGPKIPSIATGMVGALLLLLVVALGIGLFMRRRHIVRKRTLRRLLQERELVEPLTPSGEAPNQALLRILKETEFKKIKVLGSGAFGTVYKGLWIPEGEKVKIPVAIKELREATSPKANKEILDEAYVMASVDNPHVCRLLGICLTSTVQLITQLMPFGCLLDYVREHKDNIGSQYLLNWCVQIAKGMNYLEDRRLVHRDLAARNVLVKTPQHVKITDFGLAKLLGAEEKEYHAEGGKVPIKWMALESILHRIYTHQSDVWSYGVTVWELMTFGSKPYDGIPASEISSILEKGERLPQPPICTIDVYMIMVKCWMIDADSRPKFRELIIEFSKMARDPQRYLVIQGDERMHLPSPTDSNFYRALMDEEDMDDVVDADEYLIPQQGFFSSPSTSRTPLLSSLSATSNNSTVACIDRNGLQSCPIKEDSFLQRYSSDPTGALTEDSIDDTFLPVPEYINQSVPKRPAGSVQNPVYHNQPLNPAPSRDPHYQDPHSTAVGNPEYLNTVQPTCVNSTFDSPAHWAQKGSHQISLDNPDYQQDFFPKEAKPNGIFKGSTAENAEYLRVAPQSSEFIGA
Experimental: Purification of Epidermal Growth Factor Receptor Tyrosine Kinase Human EGF receptor tyrosine kinase was isolated from A431 human epidermoid carcinoma cells which overexpress EGF receptor by the following methods. Cells were grown in roller bottles in 50% Delbuco's Modified Eagle and 50% HAM F-12 nutrient media (Gibco) containing 10% fetal calf serum. Approximately 10^9 cells were lysed in two volumes of buffer containing 20 mM 2-(4N-[2-hydroxyethyl]piperazin-1-yl)ethanesulfonic acid (hepes), pH 7.4, 5 mM ethylene glycol bis(2-aminoethyl ether) N,N,N′,N′-tetraacetic acid, 1% Triton X-1OO, 10% glycerol. 0.1 mM sodium orthovanadate, 5 mM sodium fluoride, 4 mM pyrophosphate, 4 mM benzamide, 1 mM dithiothreitol, 80 μg/mL aprotinin, 40 μg/mL leupeptin and 1 mM phenylmethylsulfonyl fluoride. After centrifugation at 25,000×g for 10 minutes, the supernatant was equilibrated for 2 h at […], with 10 mL of wheat germ agglutinin sepharose that was previously equilibrated with 50 mM Hepes, 10% glycerol, 0.1% Triton X-100 and 150 mM NaCl, pH 7.5, (equilibration buffer). Contaminating proteins were washed from the resin with 1M NaCl in equilibration buffer, and the enzyme was eluted with 0.5M N-acetyl-1-D-glucosamine in equilibration buffer, followed by 1 mM urea. The enzyme was eluted with 0.1 mg/ml EGF.
Determination of IC50 Values for Wt EGFR
Dilute all compounds to 500 μM stock solutions in 100% DMSO and make a serial of 4-fold dilution for 10 does. “Max” and “Min” control contain 100% DMSO. “Max” stands for […], “Min” stands for low control without compounds. Transfer 10 μl of compounds to 90 μl of Ix kinase base buffer to make intermediate dilution. Transfer 5 μl of intermediate dilution compounds to the 384-well assay plate, then 10 μl 2.5× enzyme buffer containing (20 nM EGFR, 5 mM DTT, 1× kinase base buffer) were added to assay plate. […] Incubate at RT for 1 hr and 25 μl stop buffer to end up reaction. Collect conversion data from Caliper and conversion data from Caliper program. Fit the data in XLfit to obtain IC50 values.

PC9 cells (SM) = test: PC-9 growth inhibition assay (cell proliferation), Method B; assay type: cell-based, human; details: Homo sapiens, PC-9, 72 h, cellular proliferation, several runs
Experimental: (§2) Cell Proliferation Assays—Method B
(§3) Test compounds were dissolved in DMSO at 30 mM.
(§4) The final concentration was 1,000 cells/well. Add medium only as low control. […] 5% CO2 incubator for 72 hours.
(§5) After 72 hours incubation, remove the plates from incubator and equilibrate at room temperature for 15 minutes. Incubate the CellTiter Glo reagents (Promega, G9243) at 37° C. before the experiment. The buffer was equilibrated to room temperature and used to dissolve the substrate. To determine the cell viability, add 40 μL of CellTiter-Glo reagent into each well to be detected (at 1:1 to culture medium). Then the place the plates at room temperature for 30 min followed by read on EnSpire (PerkinElmer).
(§6) For estimation of IC50, the luminescence readout are transformed to % Inhibition by applying the following equation: The IC50 was then
(§7) [formula] calculated by fitting in XLFit to a four parameters logistic curve.
PC-9 Growth Inhibition Assay (Cell Proliferation).
The inhibition assay of PC-9 cells was conducted in the same manner as described above for H1975 cells.

H1975 cells (DM) = test: H1975 inhibition assay (cell proliferation), Method B; assay type: cell-based; details: Homo sapiens, NCI-H1975, 72 h, cellular proliferation, several runs
Experimental: as §2
H1975 Inhibition Assay (Cell Proliferation).
as §3, §4, §5, §6, §7

A431 cells (WT) = test: A431 inhibition assay (cell proliferation), Method B; assay type: cell-based, human; details: Homo sapiens, A-431, 72 h, cellular proliferation, several runs
Experimental: as §2
A431 Inhibition Assay, (Cell Proliferation).
The rest procedure was conducted in the same manner as described above for H1975 cells.

IGF-1R = biological target: T2, IGF-1R (Homo sapiens, UniProt P08069); test: IGF-1R inhibition assay (Caliper EZ Reader); assay type: biochemical; details: enzyme assay
T2 construct: purchased CARNA BIOSCIENCE 08-141
T2 sequence (P08069 959-1367 limits assumed): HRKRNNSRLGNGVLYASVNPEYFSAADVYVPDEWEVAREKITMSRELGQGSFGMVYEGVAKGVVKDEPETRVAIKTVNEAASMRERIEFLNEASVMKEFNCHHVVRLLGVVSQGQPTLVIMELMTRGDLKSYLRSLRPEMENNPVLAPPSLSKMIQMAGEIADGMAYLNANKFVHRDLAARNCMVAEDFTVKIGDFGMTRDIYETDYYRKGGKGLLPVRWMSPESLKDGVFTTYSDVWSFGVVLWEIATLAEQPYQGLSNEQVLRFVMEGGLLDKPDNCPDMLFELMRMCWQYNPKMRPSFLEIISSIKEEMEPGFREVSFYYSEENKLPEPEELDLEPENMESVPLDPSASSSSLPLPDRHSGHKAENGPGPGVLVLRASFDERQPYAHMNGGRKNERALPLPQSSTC
Experimental: (§8) Test compound was dissolved in DMSO at 30 mM. […] 20 nL of these compounds DMSO dilutes were dispensed into a new 384-well assay plate by Echo 550. […] 15 uL of kinase assay buffer containing IGF-1R protein and substrate was transferred to assay plate and incubate at RT for 30 minutes. Kinase assay buffer supplemented with substrate peptides was employed as low control to monitor the background. 40 μM ATP was prepared in kinase assay buffer containing and 5 μL of ATP solution was added to each well to start the reaction. The assay plate was incubated at 25° C. for 180 minutes and the reaction was stopped by adding 40 μL of 0.5 M EDTA.
Phosphorylated fluorescent-tagged peptides were differentiated from non-phosphorylated peptides by separating using Caliper EZ Reader II and the detection was directly converted to conversion ratio.

INSR = biological target: T3, INSR (Homo sapiens, UniProt P06213); test: INSR inhibition assay (Caliper EZ Reader); assay type: biochemical; details: enzyme assay
T3 construct: purchased CARNA BIOSCIENCE 08-142
T3 sequence (P06213 989-1382 limits assumed): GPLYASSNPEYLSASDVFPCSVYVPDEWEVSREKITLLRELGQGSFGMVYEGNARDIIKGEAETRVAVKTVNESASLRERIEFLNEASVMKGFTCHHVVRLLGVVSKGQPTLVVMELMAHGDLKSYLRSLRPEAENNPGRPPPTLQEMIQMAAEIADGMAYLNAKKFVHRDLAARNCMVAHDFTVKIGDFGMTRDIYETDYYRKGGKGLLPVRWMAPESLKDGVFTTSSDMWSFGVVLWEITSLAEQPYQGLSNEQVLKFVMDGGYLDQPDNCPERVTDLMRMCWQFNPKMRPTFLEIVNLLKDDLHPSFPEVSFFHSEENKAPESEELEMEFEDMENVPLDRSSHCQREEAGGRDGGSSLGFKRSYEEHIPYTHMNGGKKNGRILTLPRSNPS
Experimental: as §8, with “INSR” for “IGF-1R”, “LM” for “μM”
The result is analyzed in the same manner of […].

[1] = test system: PC9 cells (EGFR d746-750 single mutant); test: PC-9 growth inhibition assay (cell proliferation), Method A; assay type: cell-based, human; details: Homo sapiens, PC-9; cellular proliferation, *tested by method A (Table 2); read-out: SM (PC9) IC50
Experimental: (§9) Cell Proliferation Assays—Method A
(§10) The final concentration was 4,000 cells/well. Add medium only as low control.
(§11) Day-2: Test compounds were dissolved in DMSO at 0.2 mM (200×).
(§12) Day-5: After 72 hours incubation, remove the plates from incubator and equilibrate at room temperature for 15 minutes. Incubate the CellTiter Glo reagents (Promega, G9243) at 37° C. before the experiment. The buffer was equilibrated to room temperature and used to dissolve the substrate. To determine the cell viability, add 30 μL of CellTiter-Glo reagent into each well to be detected. Then shake the plates at room temperature for 10 min and followed by plate read on Envision (PerkinElmer).
as §6, §7
PC-9 Growth Inhibition Assay (Cell Proliferation)
The inhibition assay for PC-9 cells was processed in the same manner as described for the H1975 cells.

[2] = test system: NCI-H1975 cells (EGFR L858R/T790 double mutant); test: H1975 inhibition assay (cell proliferation), Method A; assay type: cell-based; details: Homo sapiens, NCI-H1975; cellular proliferation, *tested by method A (Table 2); read-out: DM (H1975) IC50
Experimental: as §9
H1975 Inhibition Assay (Cell Proliferation)
as §10, §11, §12, §6, §7

Sequence of EGFR_d746-750 (P00533 with tags, fused parts or gaps DEL746-750): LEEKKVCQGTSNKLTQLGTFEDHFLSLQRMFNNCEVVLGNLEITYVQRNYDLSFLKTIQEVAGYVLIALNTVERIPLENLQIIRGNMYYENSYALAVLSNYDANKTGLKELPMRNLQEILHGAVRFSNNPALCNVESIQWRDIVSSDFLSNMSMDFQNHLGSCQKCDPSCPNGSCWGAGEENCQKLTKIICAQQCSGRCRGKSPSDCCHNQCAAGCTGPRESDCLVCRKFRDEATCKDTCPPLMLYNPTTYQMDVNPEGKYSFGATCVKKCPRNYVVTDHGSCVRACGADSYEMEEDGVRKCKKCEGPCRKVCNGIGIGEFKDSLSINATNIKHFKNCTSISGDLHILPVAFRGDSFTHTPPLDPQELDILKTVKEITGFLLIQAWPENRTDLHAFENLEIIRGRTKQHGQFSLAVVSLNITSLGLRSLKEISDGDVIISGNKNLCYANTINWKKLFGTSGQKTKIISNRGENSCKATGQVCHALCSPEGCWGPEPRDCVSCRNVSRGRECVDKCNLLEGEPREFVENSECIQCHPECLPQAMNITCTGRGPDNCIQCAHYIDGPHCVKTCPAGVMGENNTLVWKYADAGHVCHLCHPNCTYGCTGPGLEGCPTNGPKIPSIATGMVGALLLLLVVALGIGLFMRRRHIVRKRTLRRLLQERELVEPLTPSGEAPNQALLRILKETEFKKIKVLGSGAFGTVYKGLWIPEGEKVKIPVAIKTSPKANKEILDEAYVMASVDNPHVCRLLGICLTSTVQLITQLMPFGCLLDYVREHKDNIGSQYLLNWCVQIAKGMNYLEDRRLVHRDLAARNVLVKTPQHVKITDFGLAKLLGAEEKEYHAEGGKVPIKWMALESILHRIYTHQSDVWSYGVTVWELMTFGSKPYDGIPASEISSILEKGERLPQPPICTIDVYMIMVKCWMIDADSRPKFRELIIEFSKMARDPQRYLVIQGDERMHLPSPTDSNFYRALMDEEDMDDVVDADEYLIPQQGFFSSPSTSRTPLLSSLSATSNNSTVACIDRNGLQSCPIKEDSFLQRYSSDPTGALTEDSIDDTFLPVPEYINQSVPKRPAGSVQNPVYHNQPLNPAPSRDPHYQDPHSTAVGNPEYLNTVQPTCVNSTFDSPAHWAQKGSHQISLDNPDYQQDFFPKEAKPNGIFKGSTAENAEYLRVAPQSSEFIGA

IC50 (EGFR_d746-750) [nM]	IC50 (EGFR_T790M/L858R) [nM]	IC50 (Wt EGFR) [nM]	IC50 (PC9 cells (SM)) [nM]	IC50 (H1975 cells (DM)) [nM]	IC50 (A431 cells (WT)) [nM]	IC50 (IGF-1R) [nM]	IC50 (INSR) [nM]	IC50 [1] [nM]	IC50 [2] [nM]	SMILES
–	–	–	–	–	–	–	–	16.7	12.7	C=CC(=O)Nc1cc(Nc2nccc(-n3cc(CN)c4ccccc43)n2)c(OC)cc1N(C)CCN(C)C [Example 19, N-(5-(4-(3-(Aminomethyl)-1H-indol-1-yl)pyrimidin-2-ylamino)-2-((2-(dimethylamino)ethyl)(methyl)amino)-4-methoxyphenyl) acrylamide]
–	–	–	19.2	20.4	1680	210	206	–	–	C=CC(=O)Nc1cc(Nc2nccc(-n3cc(C(=O)O)c4ccccc43)n2)c(OC)cc1N(C)CCN(C)C [Example 30, 1-(2-((5-Acrylamido-4-((2-(dimethylamino)ethyl)(methyl)amino)-2-methoxyphenyl)amino)pyrimidin-4-yl)-1H-indole-3-carboxylic acid]
–	–	–	–	–	–	–	–	57.5	39.5	C=CC(=O)Nc1cc(Nc2nccc(-n3cc(C(=O)NC)c4ccccc43)n2)c(OC)cc1N(C)CCN(C)C [Example 36, N-Methyl 1-(2-((5-acrylamido-4-((2-(dimethylamino)ethyl)(methyl)amino)-2-methoxyphenyl)amino)pyrimidin-4-yl)-1H-indole-3-carboxamide hydrochloride]

Continued, molecule first:

SMILES	IC50 (EGFR_d746-750) [nM]	IC50 (EGFR_T790M/L858R) [nM]	IC50 (Wt EGFR) [nM]	IC50 (PC9 cells (SM)) [nM]	IC50 (H1975 cells (DM)) [nM]	IC50 (A431 cells (WT)) [nM]	IC50 (IGF-1R) [nM]	IC50 (INSR) [nM]	IC50 [1] [nM]	IC50 [2] [nM]
C=CC(=O)Nc1cc(Nc2nccc(-c3cn(C)c4cccc(C)c34)n2)c(OC)cc1N(C)CCN(C)C [Example 5, N-(2-(N-(2-(N,N-Dimethylamino)ethyl)-N-methylamino)-4-methoxy-5-(4-(1 N,4-dimethylindol-3-yl)pyrimidin-2-ylamino)phenyl)propenamide]	8.2	2.7	31	–	–	–	–	–	–	–
C=CC(=O)Nc1cc(Nc2nccc(-c3cn(C)c4cccc(Cl)c34)n2)c(OC)cc1N(C)CCN(C)C [Example 6, N-(2-(N-(2-(N,N-Dimethylamino)ethyl)-N-methylamino)-4-methoxy-5-(4-(4-chloro-1N-methylindol-3-yl)pyrimidin-2-ylamino)phenyl) propenamide]	9.2	7	44	–	–	–	–	–	–	–
C=CC(=O)Nc1cc(Nc2nccc(-n3cc(S(N)(=O)=O)c4ccccc43)n2)c(OC)cc1N(C)CCN(C)C [Example 17, N-(2-((2-(Dimethylamino)ethyl)(methyl)amino)-4-methoxy-5-(4-(3-sulfamoyl-1H-indol-1-yl)pyrimidin-2-ylamino)phenyl) acrylamide]	–	–	–	0.93	0.94	162	71.2	67.6	–	–
C=CC(=O)Nc1cc(Nc2nccc(-n3nc(C(N)=O)c4ccccc43)n2)c(OC)cc1N(C)CCN(C)C [Example 18, 1-(2-(5-Acrylamido-4-((2-(dimethylamino)ethyl)(methyl)amino)-2-methoxyphenylamino)pyrimidin-4-yl)-1H-indazole-3-carboxamide]	–	–	–	0.64	0.41	40	2.15	2.28	–	–
